Patent US8647687B2, “Isoamyl acetate for weight management” (Nestec S.A., priority 2008, dated 2014)

Test: Clinical trial: Wanting, Liking and Intensity ratings of flavored waters after a preload
Assay type: in vivo, human
Conditions: prior consumption of the preload, then rating of isoamyl acetate flavored water; 17 participants
Protocol: Isoamyl acetate was combined with 0.5% w/w sucrose (Fisher Scientific) and dissolved in bottled mineral water (Vittel, Nestlé waters, France). Isoamyl acetate was provided as liquid concentrate supplied by Sigma-Aldrich (Steinheim, Germany). The final concentration of isoamyl acetate was 16 ppm.
A clinical trial with 17 healthy participants was conducted to investigate the neural correlates of flavor reward in terms of “Liking” (or pleasure) and “Wanting” (or appetite). Seventeen participants rated flavored waters in different conditions while their brain electrical activity was monitored using electro-encephalography. Waters were flavored either with isoamyl acetate (described as banana) or ethyl butyrate (described as strawberry). Experimental conditions consisted in the ratings of the 2 flavored waters after a preload (prior consumption of a flavored water) or without a preload.
The behavioral results of this clinical trial are summarized in FIG. 1 showing the mean Wanting (or appetite) and Liking (or pleasure) ratings (from 1, not at all to 9, extremely) obtained for the ETB flavored water in the different Preload conditions from 17 participants. […] IAA: isoamyl acetate; ETB: ethyl butyrate.

For CCCC(=O)OCC [ethyl butyrate], the “appetite for isoamyl acetate flavored water” value was “no impact”.
